{"source": "patent US20260199365A1", "about": "“BIS-SULFONAMIDE SHIP1 ACTIVATORS” (The Research Foundation for the State University of New York, priority 2022, published 2026)", "key": {"[1]": {"tested_on": "microglia", "assay": "Phagolysosomal degradation of synaptosomes and dead neurons by microglia", "type": "cell-based", "conditions": "SHIP1-dependent manner", "from_the_text": "(§1) New small molecule SHIP1 activators are needed to explore the effects of these molecules in IBD and AD model systems to define the role of SHIP in these disorders. […] The K306 structure is related to a series of sulfonamide based endothelial lipase inhibitors. As the molecule came from screening, no information was available about structure activity relationships in this SHIP1 activator. Sulfonamides have been used previously as phosphate mimics in the development of phosphatase inhibitors however, so it is possible that one of the sulfonamides in the K306 structure is mimicking the one of the phosphates on PI(3,4)P2, the endogenous ligand for allosteric activation of SHIP1. […] Given that K306 provides a new class of SHIP1 activators with a unique binding site that could have implications in Crohn's disease and Alzheimer's disease, synthetic studies were initiated on the structure."}, "[2]": {"tested_on": "C2-less SHIP1 protein", "assay": "Agonism with SHIP1 protein lacking the C2 domain", "type": "biochemical", "conditions": "C2 domain of the protein deleted", "from_the_text": "as §1"}, "[3]": {"tested_on": "IL-6 production in BV-2 cells", "assay": "ELISA quantitation of IL-6 production in BV-2 cells after stimulation with LPS", "type": "cell-based, murine", "conditions": "1 h pretreatment with SHIP1 activator 10 μM, then LPS", "procedure": "FIG. 3 presents an ELISA quantitation of IL-6 production in BV-2 cells after stimulation with LPS. BV-2 cells were plated and treated for 1 h with vehicle (Veh, 0.25% DMSO) or SHIP1 activator (10 μM in Veh) prior to addition of LPS (100 ng/ml). Unstimulated BV2 cells treated with Veh are shown as an additional control to assess LPS induction of IL-6. (A) Evaluation of 1, 26, 29 and 53. (B) In a separate experiment, 70, and 71 were evaluated under similar conditions. Bars indicate Mean G SEM; statistical tests: two-way ANOVA with Tukey correction, **** p<0.0001, ** p<0.01.\nGiven this experience, some of the new activators were evaluated in a cell-based setting. Using the immortalized BV-2 cell line, which is derived from murine microglia and retains many microglial morphological and functional characteristics of microglia, an assay for the anti-inflammatory effects of these activators was developed. This assay involved treatment of the cells with lipopolysaccharides (LPS) to induce IL-6 production which can then be quantified with an ELISA.\nCell culture: The BV2 cell line was obtained from the ATCC (American Type Culture Collection). The ATCC and performs genetic validation on deposited cell lines. For the inflammatory cytokines production studies, BV2 cells were cultured in DMEM/F12 (Corning) 10% HI FBS at 37° C. and 5% CO2 in a humidified incubator and split 1:6 every 3 days with Cellstripper™ (Corning). Cells were kept at 37° C. and 5% CO2 in a humidified incubator.\nELISA measurements: Parental (scrambled guide control) BV2 cells were seeded at 5×10^5/mL, […] in 48 well plate. Cell were treated with […] small molecule or vehicle control (0.5% DMSO) and incubated for 1 h before addition of stimuli. LPS (10 ng/ml, E. coli O111: B4, Sigma) was added to the cells and incubated for 6 h to detect IL-6 production. Supernatants were spun down at 400×g for 5 minutes to remove cell debris and froze at −20° C. for ELISAs. IL-6 levels were quantified from cellular supernatants with ELISA MAX™ Standard Set Mouse IL-6 kit (Biolegend), following manufacturer's recommendations. We detected absorbance at 450 nm and removed 570 nm background absorbance, with a plate reader (Synergy 2, BioTek). All experiments were repeated three times and each value was reported as mean±SEM from biological replicates in the same assay. All statistical analysis were performed using GraphPad Prism (version 9.2). Two-way ANOVA was used to analyze all data with two independent variables as time and treatment or concentration and treatment, data is reported as Mean+/−SEM."}, "[4]": {"assay": "Half-life in vivo", "conditions": "mice", "from_the_text": "This is believed to be due to rapid oxidation of the sulfur functional groups in K306 by cytochrome P450 enzymes which are prevalent in mice. […] The thiophene is still a concern, however, as this heterocycle is known to undergo oxidation by CYP enzymes and can lead to toxic metabolites."}}, "data": [{"compound": "Cc1sc(S(=O)(=O)N2CCSCC2)cc1NC(=O)CNS(=O)(=O)c1ccc(F)cc1", "note": "[Compound K306, 2-(4-Fluorobenzenesulfonamido)-N-[2-methyl-5-(thiomorpholine-4-sulfonyl)thiophen-3-yl]acetamide]", "values": [{"measurement": "Phagolysosomal degradation of synaptosomes and dead neurons by microglia", "setting": "[1]", "result": "enhance phagolysosomal degradation"}, {"measurement": "Agonism with C2-less SHIP1 protein", "setting": "[2]", "result": "maintained agonism"}, {"measurement": "IL-6 production induced by LPS", "setting": "[3]", "result": "significantly diminished"}, {"measurement": "Half-life in vivo", "setting": "[4]", "result": "short-half life in vivo"}]}]}
